Measured values taken from patent US20100081690A1, “OXAZOLE DERIVATIVES AS POSITIVE ALLOSTERIC MODULATORS OF METABOTROPIC GLUTAMATE RECEPTORS” (ADDEX PHARMA SA, priority 2006, published 2010).

Key:
[1] = target: T1, mGluR5 (Rattus norvegicus, UniProt P31424); settings: Liu et al (2006), Zhang et al (2005); cited from earlier work
T1 construct: positive allosteric modulators of mGluR5 receptors in native preparations; endogenous in cells; host or cells: primary cortical astrocytes from Sprague-Dawley rat embryos (E16-19)

[2] = target: T2, rat mGluR5 (Rattus norvegicus, UniProt P31424); experiment: mGluR5 assay on HEK-expressing rat mGluR5 (fluorescent cell based Ca2+ mobilization); settings: for activation of rat mGluR5 receptors: HEK-rat mGluR5 cell line, without co-addition of glutamate or mGluR5 agonist; for EC50: HEK-293 cells stably expressing rat mGluR5, no co-addition of glutamate, mean of at least three independent experiments in duplicate, read-out: Ca2+ Flux (mean EC50)
T2 construct: expressed in transfected cells
Protocol: Positive functional expression of HEK-293 cells stably expressing rat mGluR5 receptor was determined by measuring intracellular Ca^2+ changes using a Fluorometric Imaging Plate Reader (FLIPR, Molecular Devices, Sunnyvale, Calif.) in response to glutamate or selective known mGluR5 agonists and antagonists. Rat mGluR5RT-PCR products in HEK-293 cells were sequenced and found 100% identical to rat mGluR5Genbank reference sequence (NM_017012). HEK-293 cells expressing rmGluR5 were maintained in media containing DMEM, dialyzed Fetal Bovine Serum (10%), Glutamax™ (2 mM), Penicillin (100 units/ml), Streptomycin (100 μg/ml), Geneticin (100 μg/ml) and Hygromycin-B (40 μg/ml) at 37° C./5% CO2.
After one day of incubation, cells were washed with assay buffer containing: 142 mM NaCl, 6 mM KCl, 1 mM […], 1 mM CaCl2, 20 mM HEPES, 1 g/L glucose, 0.125 mM sulfinpyrazone, pH 7.4. After 60 min of loading with 4 uM Fluo-4 (TefLabs, Austin, Tex.), the cells were washed three times with 50 μl of PBS Buffer and resuspended in 45 μl of assay Buffer. The plates were then transferred to a Fluorometric Imaging Plate Reader (FLIPR, Molecular Devices, Sunnyvale, Calif.) for the assessment of intracellular calcium flux. After monitoring the baseline fluorescence for 10 seconds, increasing concentrations of representative compound (from 0.01 to 60 μM) of the present invention diluted in Assay Buffer (15 μl of 4× dilutions) was added to the cell. The final DMSO concentration in the assay was 0.3%. In each experiment, fluorescence was then monitored as a function of time for 3 minutes and the data analyzed using Microsoft Excel and GraphPad Prism. Each data point was also measured two times.
Under these experimental conditions, this HEK-rat mGluR5 cell line is able to directly detect positive allosteric modulators without the need of co-addition of glutamate or mGluR5 agonist.
The concentration-response curves of representative compounds of the present invention were generated using the Prism GraphPad software (Graph Pad Inc, San Diego, USA). The curves were fitted to a four-parameter logistic equation:
(Y=Bottom+(Top-Bottom)/(1+10̂((Log EC50−X)*Hill Slope)
allowing determination of EC50 values.
The Table 1 below represents the mean EC50 obtained from at least three independent experiments of selected molecules performed in duplicate.

T1 sequence (P31424 21-1203): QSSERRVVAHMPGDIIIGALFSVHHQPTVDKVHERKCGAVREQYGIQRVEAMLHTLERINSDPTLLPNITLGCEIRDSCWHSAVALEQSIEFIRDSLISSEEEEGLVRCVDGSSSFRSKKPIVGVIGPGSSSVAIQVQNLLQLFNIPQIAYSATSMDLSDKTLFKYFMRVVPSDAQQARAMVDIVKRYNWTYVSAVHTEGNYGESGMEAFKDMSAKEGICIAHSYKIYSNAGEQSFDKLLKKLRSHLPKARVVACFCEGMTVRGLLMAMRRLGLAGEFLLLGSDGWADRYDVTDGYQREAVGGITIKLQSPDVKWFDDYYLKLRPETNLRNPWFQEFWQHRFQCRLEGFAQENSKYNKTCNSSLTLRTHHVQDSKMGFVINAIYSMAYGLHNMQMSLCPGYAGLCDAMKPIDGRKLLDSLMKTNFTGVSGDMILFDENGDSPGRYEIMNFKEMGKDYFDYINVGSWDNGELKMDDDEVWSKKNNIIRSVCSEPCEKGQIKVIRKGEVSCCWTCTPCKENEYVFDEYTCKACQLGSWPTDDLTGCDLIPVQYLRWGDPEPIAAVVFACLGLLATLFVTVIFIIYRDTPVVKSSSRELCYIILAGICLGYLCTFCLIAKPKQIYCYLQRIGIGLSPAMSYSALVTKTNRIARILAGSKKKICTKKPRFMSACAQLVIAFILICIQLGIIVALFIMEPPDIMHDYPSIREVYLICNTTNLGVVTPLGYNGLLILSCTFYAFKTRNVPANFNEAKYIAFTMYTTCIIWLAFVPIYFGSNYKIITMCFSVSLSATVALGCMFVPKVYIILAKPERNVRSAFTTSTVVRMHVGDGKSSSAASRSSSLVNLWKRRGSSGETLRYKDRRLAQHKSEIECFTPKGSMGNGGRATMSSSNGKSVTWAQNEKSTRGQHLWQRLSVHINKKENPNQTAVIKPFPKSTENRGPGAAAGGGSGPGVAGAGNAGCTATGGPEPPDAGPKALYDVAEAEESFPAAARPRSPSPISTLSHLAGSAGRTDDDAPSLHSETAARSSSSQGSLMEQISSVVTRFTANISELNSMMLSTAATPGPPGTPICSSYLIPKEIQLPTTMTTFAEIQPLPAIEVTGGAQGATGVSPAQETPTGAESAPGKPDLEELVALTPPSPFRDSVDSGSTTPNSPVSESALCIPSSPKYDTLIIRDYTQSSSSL
T2 sequence (P31424 21-1171 isoform P31424-2 limits assumed): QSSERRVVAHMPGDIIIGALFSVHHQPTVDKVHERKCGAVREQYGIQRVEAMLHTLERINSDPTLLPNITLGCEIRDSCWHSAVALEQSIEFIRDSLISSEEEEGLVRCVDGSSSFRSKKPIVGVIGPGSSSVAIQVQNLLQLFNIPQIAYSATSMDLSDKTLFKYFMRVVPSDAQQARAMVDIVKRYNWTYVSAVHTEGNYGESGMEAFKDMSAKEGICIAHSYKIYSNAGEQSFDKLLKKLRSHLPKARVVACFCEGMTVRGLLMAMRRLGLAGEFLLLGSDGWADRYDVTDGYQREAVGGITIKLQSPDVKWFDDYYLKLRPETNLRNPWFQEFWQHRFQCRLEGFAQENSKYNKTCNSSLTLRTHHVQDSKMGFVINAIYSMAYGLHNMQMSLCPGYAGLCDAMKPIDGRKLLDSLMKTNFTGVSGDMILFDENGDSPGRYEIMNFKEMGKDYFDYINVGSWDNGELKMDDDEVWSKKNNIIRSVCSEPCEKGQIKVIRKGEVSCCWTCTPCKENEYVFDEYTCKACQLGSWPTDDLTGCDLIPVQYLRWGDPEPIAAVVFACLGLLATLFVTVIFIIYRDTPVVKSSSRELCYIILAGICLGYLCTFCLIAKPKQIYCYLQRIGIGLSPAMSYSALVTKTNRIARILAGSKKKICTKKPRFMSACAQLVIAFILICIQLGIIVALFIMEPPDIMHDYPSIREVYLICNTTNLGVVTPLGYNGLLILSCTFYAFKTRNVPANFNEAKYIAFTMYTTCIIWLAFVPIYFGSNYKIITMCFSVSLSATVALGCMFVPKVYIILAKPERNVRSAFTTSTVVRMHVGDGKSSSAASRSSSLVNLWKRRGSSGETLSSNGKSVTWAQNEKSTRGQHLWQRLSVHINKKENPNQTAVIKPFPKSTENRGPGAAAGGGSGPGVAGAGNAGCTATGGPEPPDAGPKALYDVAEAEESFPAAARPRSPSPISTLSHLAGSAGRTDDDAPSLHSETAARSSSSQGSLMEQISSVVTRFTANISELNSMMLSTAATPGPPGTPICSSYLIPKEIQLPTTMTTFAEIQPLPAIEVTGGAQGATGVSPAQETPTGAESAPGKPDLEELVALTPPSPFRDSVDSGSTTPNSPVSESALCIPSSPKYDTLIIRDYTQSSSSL

| EC50 [2] | SMILES | further results |
| --- | --- | --- |
| – | Fc1cccc(/C=N/N=C/c2cccc(F)c2)c1 [DFB, reference compound] | activity in rat cortical astrocytes culture in the absence of added glutamate [1]: inactive; activation of rat mGluR5 receptors [2]: activating |
| < 1000 nM | Cc1oncc1C(=O)N1CCC[C@H](c2nc(-c3ccc(F)cc3)co2)C1 [Example 7, (S)-(3-(4-(4-Fluoro-phenyl)-oxazol-2-yl)-piperidin-1-yl)(5-methyl-isoxazol-4-yl)-methanone] | – |
| 1000 to 10000 nM | O=C(c1ccc(F)nc1)N1CCC[C@H](c2nc(-c3ccc(F)cc3F)co2)C1 [Example 15, (S)-(3-(4-(2,4-Difluoro-phenyl)-oxazol-2-yl)-piperidin-1-yl)(6-fluoro-pyridin-3-yl)-methanone] | – |
| < 1000 nM | O=C(c1ccnc(F)c1)N1CCC[C@H](c2nc(-c3ccc(F)cc3)co2)C1 [Example 5, (2-Fluoro-pyridin-4-yl)-{(S)-3-[4-(4-fluoro-phenyl)-oxazol-2-yl]-piperidin-1-yl}-methanone] | – |
| < 1000 nM | O=C(c1ccc(F)nc1)N1CCC[C@H](c2nc(-c3ccc(F)cc3)co2)C1 [Example 4, (6-Fluoro-pyridin-3-yl)-{(S)-3-[4-(4-fluoro-phenyl)-oxazol-2-yl]-piperidin-1-yl}-methanone] | – |
| < 1000 nM | O=C(c1ccc(F)nc1)N1CCC[C@H](c2nc(-c3ccccc3F)co2)C1 [Example 12, (S)-(3-(4-(2-Fluoro-phenyl)-oxazol-2-yl)-piperidin-1-yl)(6-fluoro-pyridin-3-yl)-methanone] | – |
| < 1000 nM | O=C(c1ccc(F)cc1)N1CCC[C@H](c2nc(-c3ccccn3)co2)C1 [Example 8, (S)-(4-Fluoro-phenyl)(3-(4-(pyridin-2-yl)-oxazol-2-yl)-piperidin-1-yl)-methanone] | – |
| < 1000 nM | O=C(c1ccc(F)cc1)N1CCC[C@H](c2nc(-c3ccc(F)cn3)co2)C1 [Example 10, (S)-(4-Fluoro-phenyl)(3-(4-(5-fluoro-pyridin-2-yl)-oxazol-2-yl)-piperidin-1-yl)-methanone] | – |
| < 1000 nM | O=C(c1ccc(F)cc1)N1CCC[C@H](c2nc(-c3ccc(F)cc3)co2)C1 [Example 3, (4-Fluoro-phenyl)-{(S)-3-[4-(4-fluorophenyl)-oxazol-2-yl]-piperidin-1-yl}-methanone] | – |
| < 1000 nM | O=C(c1ccc(F)cc1)N1CCC[C@H](c2nc(-c3ccccc3F)co2)C1 [Example 11, (S)-(4-Fluoro-phenyl)(3-(4-(2-fluoro-phenyl)-oxazol-2-yl)-piperidin-1-yl)-methanone] | – |
| – | N#Cc1cccc(C(=O)Nc2cc(-c3ccccc3)nn2-c2ccccc2)c1 [CDPPB, reference compound] | activity in rat cortical astrocytes culture in the absence of added glutamate [1]: inactive; activation of rat mGluR5 receptors [2]: activating |
| < 1000 nM | O=C(c1ccc(F)cc1)N1CCC[C@H](c2nc(-c3ccc(F)cc3F)co2)C1 [Example 14, (S)-(3-(4-(2,4-Difluoro-phenyl)-oxazol-2-yl)-piperidin-1-yl)(4-fluoro-phenyl)-methanone] | – |
| < 1000 nM | O=C(c1ccnc(F)c1)N1CCC[C@H](c2nc(-c3ccc(F)cc3F)co2)C1 [Example 16, (S)-(3-(4-(2,4-Difluoro-phenyl)-oxazol-2-yl)-piperidin-1-yl)(2-fluoro-pyridin-4-yl)-methanone] | – |
| < 1000 nM | O=C(c1ccc(F)nc1)N1CCC[C@H](c2nc(-c3cc(F)c[nH]3)co2)C1 [Example 2, (6-Fluoro-pyridin-3-yl)-{(S)-3-[4-(4-fluoro-1H-pyrrol-2-yl)-oxazol-2-yl]-piperidin-1-yl}-methanone] | melting point: 123 °C |
| < 1000 nM | O=C(c1ccncc1F)N1CCC[C@H](c2nc(-c3ccc(F)cc3)co2)C1 [Example 6, (3-Fluoro-pyridin-4-yl)-{(S)-3-[4-(4-fluoro-phenyl)-oxazol-2-yl]-piperidin-1-yl}-methanone] | – |
| < 1000 nM | O=C(c1ccnc(F)c1)N1CCC[C@H](c2nc(-c3ccccc3F)co2)C1 [Example 13, (S)-(3-(4-(2-Fluoro-phenyl)-oxazol-2-yl)-piperidin-1-yl)(2-fluoro-pyridin-4-yl)-methanone] | – |
| < 1000 nM | O=C(c1ccc(F)c(F)c1)N1CCC[C@H](c2nc(-c3ccccn3)co2)C1 [Example 9, (S)-(3,4-Difluoro-phenyl)(3-(4-(pyridin-2-yl)-oxazol-2-yl)-piperidin-1-yl)-methanone] | – |
| – | O=C(Nc1ccc(Cl)cc1CN1C(=O)c2ccccc2C1=O)c1ccccc1O [CPPHA, reference compound] | activity in rat cortical astrocytes culture in the absence of added glutamate [1]: inactive; activation of rat mGluR5 receptors [2]: activating |
